Source: patent publication US5217997A, “Use of L-arginine in the treatment of hypertension and other vascular disorders” (priority 1992, dated 1993)
Entries after “also recorded” stand apart in the source; their conditions may differ. Like-named read-outs stand apart in the source and are kept apart here.

Columns and labels:
[1] = test system: Wistar Kyoto rats; assay: Tail blood pressure of age-matched Wistar Kyoto rats after L- or D-arginine hydrochloride (Example 1); assay type: in vivo, rat; conditions: for effect on blood pressure: age-matched normotensive Wistar Kyoto rats
Protocol: (§1) Male spontaneous hypertensive rats and Wistar Kyoto rats were purchased from Charles River (Wilmington, Mass.) and were fed and housed under identical conditions for at least five days before use. The rats were caged in groups of three with food and water ad libitum under an artificial light-dark cycle of twelve hours.
(§2) L- and D-arginine hydrochloride were obtained from Aldrich (Milwaukee, Wis.). Forty-five-day-old spontaneous hypertensive rats were injected with L-arginine hydrochloride, 5, 16, 50, 80, 100 and 500 mg/kg body weight, or D-arginine-hydrochloride, 80 and 100 mg/kg body weight, intraperitoneally,in a final volume of 1.0 ml buffered saline for four consecutive days. The control spontaneous hypertensive rats and Wistar Kyoto rats were injected with saline. Forty-five day old Wistar Kyoto strain rats were injected with 50 mg/kg body weight of L-arginine hydrochloride for four days. Each group consisted of four or five experimental animals. Blood pressure from the tail was measured before the first injection and twenty-four hours after the last arginine administration. Blood pressure was measured with anesthesia, using a pletysmograph.
(§3) Results are expressed as the means ±SEM. A two-way analysis of variance was performed to compare blood values between control, L-arginine and D-arginine treated spontaneous hypertensive rats. Specific differences between groups were tested by the Newman-Keuls test. The null hypothesis was rejected when the p value was less than 0.05.
(§4) The blood pressure of 7-week-old spontaneous hypertensive rats and Wistar Kyoto rats was monitored before and after administration of L- and D-arginine. […] At a dose as low as 16 mg/kg body weight, L-arginine lowered blood pressure by 10 mm Hg […].
For example, blood pressure of 7-week-old Wistar Kyoto rats remained unchanged following four days of treatment with L-arginine (50 mg/kg body weight), 122.3±1.3 mm Hg vs. 124.5±1.7 mm Hg for control and treated, respectively, n=3.

[2] = test system: spontaneous hypertensive rats; assay: Tail blood pressure of 7-week-old spontaneous hypertensive rats after L- or D-arginine hydrochloride (Example 1); assay type: in vivo, rat
Protocol: as §1, §2, §3, §4

[3] = test system: anesthetized rabbit; conditions: cited from earlier work
[4] = test system: spontaneous hypertensive rats; assay: Systolic blood pressure in 7-week-old SHR, heme vs. arginine component and heme oxygenase inhibitor (Table 3); assay type: in vivo, rat; conditions: for reduction of blood pressure: "same dose (15 mg/kg body weight)", control increased by 7.7 mmHg; for Systolic blood pressure, after treatment: n=5, 4 days, heme-L-arginate = 15 mg hemin + 16 mg L-arginine per kg, hemin 15, L-arginine 16, ZnDPBG 7 mg/kg, 23 hours after last injection, *p<0.005 vs control 166.0±2.7; for Systolic blood pressure, after treatment / Systolic blood pressure, before treatment: ±SD; for Systolic blood pressure, before treatment: n=5, baseline
Protocol: Applicants further examined whether the effect is due to heme or to the arginine component of heme arginate. In separate experiments, applicants treated 7-week-old spontaneous hypertensive rats with heme-L-arginate, hemin alone and L-arginine alone at the same dose (15 mg/kg body weight). […] At the same period, blood pressure in control spontaneous hypertensive rats increased by 7.7 mmHg.
Systolic blood pressure was measured by tail cuff pletysmograph before and 23 hours after the last injection. Results are the same ±SD, n=5 in each group; significance from control spontaneous hypertensive rats after 4 days of treatment with the vehicle (166.0±2.7), *p<0.005.

[5] = test system: renal cytochrome P-450; conditions: in vivo; cited from earlier work
[6] = test system: spontaneous hypertensive rats; conditions: young SHR; cited from earlier work

N=C(N)NCCC[C@@H](N)C(=O)O [D-arginine]
effect on blood pressure [1]: Neither L-arginine nor D-arginine had any effect on blood pressure | effect on blood pressure ([2]; 80 and 100 mg/kg body weight, four days, 7-week-old SHR): did not effect the blood pressure; also recorded: had no effect on blood pressure | effect on blood pressure ([2]; concentrations lower than 80 mg/kg body weight, SHR): did not alter blood pressure

N=C(N)NCCC[C@H](N)C(=O)O [L-arginine, 2-amino-5-guanidinovaleric acid]
effect on the inhibition of N-monomethyl-L-arginine ([3]; L-arginine administration): abolished the inhibition of N-monomethyl-L-arginine within fifteen minutes | reduction of blood pressure [4]: 9.7 mmHg | Systolic blood pressure, after treatment [4]: 144.4 ± 3.0 mmHg | Systolic blood pressure, before treatment [4]: 154.1 ± 4.5 mmHg | blood pressure, treated ([1]; 50 mg/kg body weight, four days, 7-week-old WKY, n=3, ±SEM, control 122.3±1.3): 124.5±1.7 mm Hg | effect on blood pressure [1]: Neither L-arginine nor D-arginine had any effect on blood pressure; also recorded: no effect was documented in normotensive rats | decrease in blood pressure ([2]; 16 mg/kg body weight i.p., four consecutive days, 7-week-old SHR): 10 mm Hg | maximal effect, decrease in blood pressure ([2]; 100 mg/kg body weight (maximal dose) i.p., four days, 7-week-old SHR): 30 mm Hg | effect on blood pressure ([2]; 5-500 mg/kg i.p., four days, 7-week-old SHR): dose-dependent decrease in blood pressure | overall reduction of blood pressure ([2]; at the maximal dose, young SHR): 20% | effect on blood pressure of higher doses ([2]; doses higher than 100 mg/kg, 7-week-old SHR): did not lower blood pressure further

CN=C(N)NCCC[C@H](N)C(=O)O [N-monomethyl-L-arginine]
effect on mean arterial blood pressure [3]: dose-dependent increase in mean arterial blood pressure

[Cl][Sn][Cl] [SnCl2]
effect on renal cytochrome P-450 [5]: depletion of renal cytochrome P-450 | effect on blood pressure [6]: marked decrease in blood pressure

Hemin
reduction of blood pressure [4]: 14.3 mmHg | Systolic blood pressure, after treatment [4]: 142.2 ± 2.4 mmHg | Systolic blood pressure, before treatment [4]: 156.5 ± 3.3 mmHg

Zn-2,4-deuteropophyrin IX bis glycol [ZnDPBG]
effect on blood pressure ([4]; inhibitor alone): did not have any effect on blood pressure | Systolic blood pressure, after treatment [4]: 169.1 ± 2.5 mmHg | Systolic blood pressure, before treatment [4]: 154.0 ± 4.0 mmHg
